Data: patent publication US20160281089A1, “PREVENTION OF VIRAL INFECTIVITY” (priority 2005, published 2016)

Columns and labels:
HIV virions = assay: ODN-mediated cleavage of viral RNA in intact HIV virions (real-time PCR, RT-PCR, agarose gel); type: biochemical; settings: 0.5 μM ODN, 6 hours; for amount of undigested viral RNA (real-time PCR, primers covering PPT region): intact HIV virions, RPMI medium
SFFV [1] = assay: NIH 3T3 cells infected with ODN-pretreated SFFV; type: cell-based; settings: three days post-infection, real-time RT-PCR
Text: As next step we investigated the antiviral effect of ODNs by testing pre-treated virions for residual infectivity as has been described before for HIV particles. SFFV particles were pretreated with ODN M or its variants and used to infect NIH 3T3 cells. After three days RNA was extracted from infected cells and from the supernatants and SFFV was quantified by real-time RT-PCR and analysis of amplification products (FIG. 9b).
b. NIH 3T3 cells were infected with SFFV pretreated with various ODNs. After three days the cells and supernatants were harvested and analyzed for SFFV RNA levels by quantitative real time RT-PCR (top) and RT-PCR (bottom) using GAPDH for comparison.

SFFV [2] = assay: Treatment of 5-day-SFFV-infected mice, plasma SFFV RNA by real-time RT-PCR; type: in vivo
Text: SFFV replicates to high titers in mice, whereby the spleen is a virus-shedding reservoir. The virus stock is recovered from spleen homogenates after full-blown disease, at about day 20 post infection (pi). The clarified supernatant contains around 2×10^5 focus forming units (FFU) per mil. Infection was normally performed by intravenous (iv) injection of 4×10^3 SFFV. After 5 days the blood was recovered (100 microliters) for detection of the viral RNA. The equivalent of 0.05 microliters was enough for RNA detection by 40 cycles. One FFU corresponds to about 6×10^4 RNA copies or 3×10^4 virus particles.
A number of experiments were carried out to evaluate the effect of ODNs on the SFFV mouse model. We treated 5-day-SFFV-infected mice (thick arrow) with ODN M (triangle) and measured the plasma RNA levels 4 hours after the in vivo therapy by real-time RT-PCR (FIG. 10a.1). In a second experiment we isolated the plasma of 5-day-SFFV-infected mice and treated it ex vivo with ODN M for 4 hours (FIG. 10a.2). In the third experiment we isolated uninfected plasma, incubated it ex vivo with ODN M for 2 hours followed by the addition of SFFV for 4 more hours (FIG. 10a.3). Finally we incubated ODN M and SFFV together in normal mouse plasma ex vivo for 4 hours (FIG. 10a.4).
To elucidate further the antiviral effect of ODN M in vivo we set up different therapeutic regimens. We infected mice with SFFV and then treated them 5 days later twice at an interval of two hours with either ODN M (1 mg), asPPT, ODN A as control, or PBS. The RNA was extracted 4, 8 and 16 hours later for PCR analysis (FIG. 10b.1). The viral RNA decreased approximately 6-fold in the plasma and started to slowly increase again 16 hours post-therapy.
In the next study, we used a single injection as treatment protocol and assessed the antiviral effect of both ODN M and asPPT in a short time-course. Plasma was taken from mice at 0.5, 1, 2, and 4 hours after the single treatment (FIG. 10b.2). A strong decrease of the number of SFFV RNA copies was detectable 4 hours after treatment. […] We conclude from FIG. 10b.2 that a single injection is sufficient to decrease the number of RNA copies by approximately 6-fold 4 hours after the beginning of the therapy.
In order to test, whether the SFFV titer increases again after ODN M-treatment, and whether it remains sensitive for ODN M, we treated 5-day-SFFV-infected mice at 3 days intervals with a double dose within 2 hours intervals. Plasma was taken before and 4 hours after treatment and assessed for viral RNA levels (FIG. 10b.3). ODN M exerted a strong antiviral effect with a reduction of RNA copies of 6-fold at day 0 compared with the control. At day 3, the effect is even stronger with 8-fold decrease of the SFFV RNA level.
To obtain a more continuous effect of ODN M and asPPT on SFFV replication we treated the SFFV-infected mice every 12 hours (FIG. 10b.4). […] The lack of response is in accordance with our previous in vitro studies on the sequence-specificity of the ODN A.
PCR was performed as indicated. 1. Mice infected with 200 μl containing 4×10^3 FFU SFFV for 5 days were treated i.v. with ODN M (1 mg corresponding to about 20 μM ODN M in the blood of a mouse) or PBS 4 hours post-treatment, plasma (100 μl) was recovered and analyzed by real time RT-PCR for SFFV RNA. 2. Plasma from a 5-day-SFFV-infected mouse was recovered and 100 μl were treated with ODN M (20 μM) for 4 hours at 37° C. ex vivo and then analyzed. 3. Plasma from a mock-infected mouse was treated with ODN M (20 μM) for 2 hours and then treated with 4×10^3 FFU in 20 μl for 4 hours. 4. Plasma from mock-infected mice was incubated with a combination of SFFV (4×10^3 FFU in 20 μl) and ODN M (20 μM) for 4 hours and then analyzed. The RNA levels were determined by real-time RT-PCR in the four experimental scenarios and are shown to the right.
b. Effect of ODN treatment following SFFV-infection in vivo. […]

SFFV [3] = assay: Prophylactic SFFV mouse model: virions pre-incubated with ODNs, injected i.p., then i.v. treatments; type: in vivo, mice
Method: Next we evaluated the prophylactic effect of ODN M on SFFV replication. For this we established 5 groups of 5 mice each. We pre-incubated SFFV with different ODNs or PBS for 2 hours and then injected the two together intraperitoneally at time 0. Then the mice were treated at 2, 4, and 24 hours post-infection by i.v. route. After 5 days, plasma from the mice was analyzed for viral RNA levels. […] A blood smear of the mice at day 64 post-infection was analyzed by Giemsa staining.
a. SFFV virions pre-treated with ODNs for 2 hours were injected i.p. into mice. Subsequent treatments were at 2, 4 and 24 h post infection. 5 groups of 5 mice each were used: negative control (1), infection with PBS (2), ODN M (3), or ODN A treatment (4) and mock-infection with ODN M treatment (5). Bleeding was performed five days post-infection for analysis of the viral RNA. The relative RNA levels standardized to group 2 of fully infected mice (bars) as well as RT-PCR products of the individual mice (gel analysis) are shown.

[4] = treated every 12 hours, up to 60 hours
[5] = SFFV pre-incubated 2 hours, i.p., i.v. treatments at 2, 4, 24 hours, day 5

Sequence	cDNA production in virions (PCR with ODN A- and viral cDNA-specific primers) (HIV virions; virions containing monodeoxynucleotides)	amount of undigested viral RNA (real-time PCR, primers covering PPT region) (HIV virions)	total viral RNA by agarose gel electrophoresis (HIV virions; intact virions, compared to control ODNs)	SFFV RNA in infected cells and supernatant (SFFV [1])	effect on viral replication (SFFV [2]; double dose at 3 days intervals)	effect on decrease of the RNA level (SFFV [2]; [4])	reduction in RNA expression level (SFFV [3]; [5]) [%]	reduction of RNA copies compared with the control (SFFV [2]; double dose within 2 hours, day 0, 4 hours after treatment) [fold]	decrease of the SFFV RNA level (SFFV [2]; double dose within 2 hours, day 3) [fold]	antiviral effect compared with asPPT (SFFV [2]; single injection, 2 hours after beginning of therapy)	decrease of number of SFFV RNA copies (SFFV [2]; single injection, 4 hours after beginning of therapy)	decrease of SFFV RNA levels (plateau) (SFFV [2]; [4])	decrease of viral RNA in the plasma (SFFV [2]; treated twice at an interval of two hours, 1 mg, RNA at 4, 8, 16 hours)	decrease of plasma RNA levels compared to PBS control mice (SFFV [3]; [5]) [fold]	blood smear, Giemsa staining (SFFV [3]; day 64 post-infection)	viral infectivity in the body after pretreatment of the virus (SFFV [3]; pretreatment in a small test tube 1 to 4 hours, then infection of the mouse)
TTTTCTTTTGGGGGGTTTGGTTGGGTTTTCCCTTCCAGTCCCCCCTTTTCTTTT (phosphorothioate linkages, further chemistry not given here) [ODN A, 25 mer antisense and 25 mer passenger strand connected by T4, phosphorothioated at each end and in linker, targeted to extended PPT of HIV-1]	led to cDNA production starting with ODN A	significant decrease in the amount of amplification product	significant reduction of the viral RNA	clearly less efficient	no effect on viral replication	no significant effect	30	–	–	–	–	–	–	–	–	–
TCTTTTTGGGGGGTTTGTTTGTTTTTTCTTTCATTCCCCCCTTTTTCT (chemistry not given here) [ODN M, 22-mer antisense and 22-mer second strand connected by T4, targeted to extended PPT of SFFV]	–	–	–	suppressed viral replication	–	–	–	6	8	stronger than that of asPPT	approximately 6 fold	about 10 fold	approximately 6 fold	5	normal blood cell population	–
CCCTTCCAGTCCCCCCTTTTCTTTT (chemistry not given here) [asPPT, single-stranded antisense PPT of HIV, lacks the passenger strand and the linker]	–	less efficient cleavage of the viral RNA	–	clearly less efficient	–	–	–	–	–	–	–	~5 fold	–	–	–	completely abrogate viral infectivity
